# Laboratory results published in article PMC6054424, “Expression and purification of a functional heteromeric GABAA receptor for structural studies” (PLoS ONE, 2018).
# Columns and labels:
# [1] = biological target: T1, GABAA receptor α1/β1 (α1 subunit) (Rattus norvegicus, UniProt P15431+P62813, P15431:DEL334-439/P15431:INS334GT/P62813:DEL341-408/P62813:INS341T); test: radioligand saturation binding by scintillation proximity assay on purified receptor in L-MNG
# T1 construct: gene Gabra1; purified α1/β1 receptor with M3/M4 loop truncations (α1-LT: Y341-P408 replaced with Thr; β1-LT: K334-K439 replaced with Gly-Thr), C-terminal His8 tag; with GABAA receptor β1 subunit (Gabrb1, P15431)
# T1 sequence (P62813 with tags, fused parts or gaps DEL341-408/INS341T): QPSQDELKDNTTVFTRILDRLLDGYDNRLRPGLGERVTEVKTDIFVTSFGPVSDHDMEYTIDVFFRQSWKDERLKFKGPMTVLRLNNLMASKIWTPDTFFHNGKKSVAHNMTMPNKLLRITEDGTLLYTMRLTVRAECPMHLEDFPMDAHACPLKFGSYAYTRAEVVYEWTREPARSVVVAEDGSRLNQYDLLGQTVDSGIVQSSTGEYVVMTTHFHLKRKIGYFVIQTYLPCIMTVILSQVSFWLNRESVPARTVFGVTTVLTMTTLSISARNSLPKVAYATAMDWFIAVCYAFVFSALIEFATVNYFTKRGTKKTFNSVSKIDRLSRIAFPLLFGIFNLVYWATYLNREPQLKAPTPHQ
# T1 sequence (P15431 with tags, fused parts or gaps DEL334-439/INS334GT): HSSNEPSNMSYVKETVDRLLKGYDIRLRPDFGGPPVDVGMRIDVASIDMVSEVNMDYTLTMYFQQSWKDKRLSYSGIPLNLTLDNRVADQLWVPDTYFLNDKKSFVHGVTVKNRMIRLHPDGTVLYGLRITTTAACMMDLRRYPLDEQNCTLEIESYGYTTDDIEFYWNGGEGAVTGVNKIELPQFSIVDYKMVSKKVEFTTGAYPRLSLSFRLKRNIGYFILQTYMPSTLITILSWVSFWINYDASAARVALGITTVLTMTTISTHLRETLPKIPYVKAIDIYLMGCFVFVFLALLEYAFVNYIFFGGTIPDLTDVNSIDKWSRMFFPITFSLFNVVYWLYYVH
# [2] = biological target: the molecule itself; test: SEC; fluorescence detection SEC (FSEC) of 8-12 oocytes solubilised with 40 mM C12M; Superose6 10/300 GL in TBS pH 8.0, 1 mM C12M, 1 mM EDTA; GFP fluorescence of the tagged subunit followed; ferritin and EGFP as standards
Molecule,Kd [1],stoichiometry N [2]
NCc1cc(=O)[nH]o1 [muscimol],24 ± 1.1 nM,
"GluClα-EGFP (α subunit of the glutamate-gated chloride channel from C. elegans, EGFP in the M3/M4 loop) (receptor, UniProt G5EBR3 21-461, looked up, glutamate-gated chloride channel α subunit (GluClα), C. elegans; source: Xenopus oocytes injected with synthetic mRNA, in C12M-solubilised oocytes; not shown: EGFP, internal (M3/M4 loop)) QQARTKSQDIFEDDNDNGTTTLESLARLTSPIHIPIEQPQTSDSKILAHLFTSGYDFRVRPPTDNGGPVVVSVNMLLRTISKIDVVNMEYSAQLTLRESWIDKRLSYGVKGDGQPDFVILTVGHQIWMPDTFFPNEKQAYKHTIDKPNVLIRIHNDGTVLYSVRISLVLSCPMYLQYYPMDVQQCSIDLASYAYTTKDIEYLWKEHSPLQLKVGLSSSLPSFQLTNTSTTYCTSVTNTGIYSCLRTTIQLKREFSFYLLQLYIPSCMLVIVSWVSFWFDRTAIPARVTLGVTTLLTMTAQSAGINSQLPPVSYIKAIDVWIGACMTFIFCALLEFALVNHIANKQGVERKARTEREKAEIPLLQNLHNDVPTKVFNQEEKVRTVPLNRRQMNSFLNLLETKTEWNDISKRVDLISRALFPVLFFVFNILYWSRFGQQNVLF",,5
